ChEMBL document CHEMBL5223171, “Synthesis and discovery of Baylis-Hillman adducts as potent and selective thioredoxin reductase inhibitors for cancer treatment” (Bioorg Med Chem, 2023)

What was measured:
HeLa = assay: Cytotoxicity against human HeLa cells assessed as reduction in cell viability incubated for 72 hrs by MTT assay; type: functional, cell-based
HepG2 [1] = assay: Cytotoxicity against human HepG2 cells assessed as reduction in cell viability incubated for 72 hrs by MTT assay; type: functional, cell-based; conditions: HepG2, 72 h
A549 = assay: Cytotoxicity against human A549 cells assessed as reduction in cell viability incubated for 72 hrs by MTT assay; type: functional, cell-based; conditions: A549, 72 h
[2] = Inhibition of recombinant TrxR (unknown origin) using DTNB as substrate incubated for 2 hrs in presence of NADPH; parameters: species or system Homo sapiens
HepG2 [3] = assay: Inhibition of TrxR in human HepG2 cells at 2.5 to 10 uM incubated for 52 hrs by TRFS-green staining based fluorescence microscopic analysis; type: cell-based; conditions: dose 2.5-10 µM
Thioredoxin reductase = Thioredoxin reductase (Escherichia coli (strain K12), UniProt P0A9P4); assay: Inhibition of Escherichia coil TrxR incubated for 2 hrs in presence of DTT and insulin
Thioredoxin reductase, sequence (P0A9P4 whole entry): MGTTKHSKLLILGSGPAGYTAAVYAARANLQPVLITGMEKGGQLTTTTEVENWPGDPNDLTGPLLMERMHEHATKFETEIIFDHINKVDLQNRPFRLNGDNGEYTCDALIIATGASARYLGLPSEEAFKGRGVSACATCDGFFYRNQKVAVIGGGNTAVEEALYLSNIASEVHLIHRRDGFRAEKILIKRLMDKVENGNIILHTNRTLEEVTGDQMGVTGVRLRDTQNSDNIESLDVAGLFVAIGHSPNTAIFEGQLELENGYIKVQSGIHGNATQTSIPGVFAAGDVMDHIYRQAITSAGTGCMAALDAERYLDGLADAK

Homo sapiens = species: Homo sapiens; assay: Inhibition of recombinant TrxR (unknown origin) using DTNB as substrate at 10 to 40 uM incubated for 2 hrs in presence of NADPH; conditions: dose 10-40 µM
[4] = target: Thioredoxin reductase (Escherichia coli (strain K12)) (UniProt P0A9P4); assay: Inhibition of Escherichia coil TrxR at 10 to 40 uM incubated for 2 hrs in presence of DTT and insulin; conditions: dose 10-40 µM
Thioredoxin reductase (Escherichia coli (strain K12)), sequence (P0A9P4 whole entry): as above

HepG2 [5] = assay: Inhibition of TrxR in human HepG2 cells at 2.5 to 10 uM incubated for 48 hrs by NBL-SS probe based assay; type: cell-based; conditions: dose 2.5-10 µM
HepG2 [6] = assay: Induction of ROS generation in human HepG2 cells assessed as increase in intracellular ROS level at 2.5 to 10 uM incubated for 48 hrs by DCFH-DA staining based fluorescence microscopy; type: functional, cell-based; conditions: dose 2.5-10 µM
HepG2 [7] = assay: Inhibition of colony formation in human HepG2 cells assessed as reduction in colony number at 5 to 10 uM incubated for 5 days by crystal violet staining assay; type: functional, cell-based; conditions: dose 5-10 µM, time 5.0 day
HepG2 [8] = assay: Inhibition of colony formation in human HepG2 cells at 5 uM incubated for 5 days by crystal violet staining assay; type: functional; conditions: HepG2, 120 h, time 5 day
HepG2 [9] = assay: Induction of cell cycle arrest in human HepG2 cells assessed as accumulation at G1 phase at 10 uM incubated for 48 hrs by propidium iodide staining based flow cytometry (reference value: 64.6%); type: functional
HepG2 [10] = assay: Induction of cell cycle arrest in human HepG2 cells assessed as accumulation at S phase at 10 uM incubated for 48 hrs by propidium iodide staining based flow cytometry (reference value: 20.55%); type: functional
HepG2 [11] = assay: Induction of cell cycle arrest in human HepG2 cells assessed as accumulation at G2 phase at 10 uM incubated for 48 hrs by propidium iodide staining based flow cytometry (reference value: 14.85%); type: functional
HepG2 [12] = assay: Inhibition of cell migration in human HepG2 cells at 5 to 10 uM incubated upto 48 hrs by wound healing assay; type: functional, cell-based; conditions: dose 5-10 µM

Row | SMILES | IC50 (HeLa) | IC50 (HepG2 [1]) | IC50 (A549) | also measured
1 | C=C(COC(=O)Nc1ccc(C)cc1)C(=O)NC(CC(C)C)C(=O)NC(C)(C)C (configuration not stated) | > 20 µM | > 20 µM | > 20 µM | –
2 | C=C(COC(=O)Nc1ccc(C)cc1)C(=O)NC(C(=O)NC(C)(C)C)c1ccc(Cl)cc1 (configuration not stated) | > 20 µM | 11.6 µM | > 20 µM | –
3 | C=C(COC(=O)Nc1ccc(C)cc1)C(=O)NC(C(=O)NCC(=O)OCC)c1ccc(Cl)cc1 (configuration not stated) | > 20 µM | > 20 µM | > 20 µM | –
4 | C=C(COC(=O)Nc1ccc(C)cc1)C(=O)NC(C(=O)NCC(=O)OCC)c1ccc(Br)cc1 (configuration not stated) | > 20 µM | 18.8 µM | > 20 µM | –
5 | C=C(COC(=O)Nc1ccc(C)cc1)C(=O)NC(C(=O)NC(C)(C)C)c1ccc(F)cc1 (configuration not stated) | > 20 µM | > 20 µM | > 20 µM | –
6 | C=C(COC(=O)Nc1ccc(C)cc1)C(=O)NC(C(=O)NCC(=O)OCC)c1ccc(Cl)cc1Cl (configuration not stated) | > 20 µM | > 20 µM | > 20 µM | –
7 | C=C(COC(=O)Nc1ccc(C)cc1)C(=O)NC(C(=O)NC(C)(C)C)c1ccc(Br)cc1 (configuration not stated) | > 20 µM | > 20 µM | > 20 µM | –
8 | C=C(COC(=O)Nc1ccc(C)cc1)C(=O)NC(C(=O)NC(C)(C)C)c1ccc(Cl)cc1Cl (configuration not stated) | > 20 µM | > 20 µM | > 20 µM | –
9 | C=C(COC(=O)Nc1ccc(C)cc1)C(=O)NC(C(=O)NCC(=O)OCC)c1ccccc1 (configuration not stated) | > 20 µM | 11.5 µM | > 20 µM | –
10 | C=C(COC(=O)Nc1ccc(C)cc1)C(=O)NC(CC(C)C)C(=O)NCC(=O)OCC (configuration not stated) | > 20 µM | 4.7 µM | > 20 µM | IC50 [2]: 4.18 µM; inhibition (HepG2 [3]): Dose-Dependent Effect; IC50 (Thioredoxin reductase): 16.6 µM; inhibition (Homo sapiens): Dose-Dependent Effect; inhibition [4]: Dose-Dependent Effect; inhibition (HepG2 [5]): Dose-Dependent Effect; Activity (HepG2 [6]): Dose-Dependent Effect; inhibition (HepG2 [7]): Dose-Dependent Effect; inhibition at 5 µM (HepG2 [8]): 67.1%; Activity (HepG2 [9]): 72.24%; Activity (HepG2 [10]): 17.74%; Activity (HepG2 [11]): 10.02%; inhibition (HepG2 [12]): Dose-Dependent Effect
11 | C=C(COC(=O)Nc1ccc(C)cc1)C(=O)NC(C(=O)NCC(=O)OCC)c1ccc(F)cc1 (configuration not stated) | > 20 µM | 17.6 µM | > 20 µM | –
12 | CCC(C)SSc1ncc[nH]1 (configuration not stated) [PX-12] | 9 µM | 12 µM | > 20 µM | –
13 | C=C(COC(=O)Nc1ccc(C)cc1)C(=O)NC(C(=O)NC(C)(C)C)c1ccccc1 (configuration not stated) | > 20 µM | > 20 µM | > 20 µM | –
